Reference: publication PMC7616177, “From structure to clinic: Design of a muscarinic M1 receptor agonist with the potential to treat Alzheimer’s disease” (Cell, 2021)

System: Cynomolgus macaques
Assay: Resting state qEEG in non-human primates
Assay type: in vivo, Macaca fasicularis
Conditions: subcutaneous, 0.3 and 3 mg/kg
Source text: 6 adult male Cynomolgus macaques (Macaca fasicularis; 8-10 kg; 12-15 years old) were used for EEG studies. These animals had been used previously on other studies and were not considered to be pharmacologically naive. Subjects were housed in a temperature-controlled recording room and are maintained on a 12-hour light/dark cycle. The animals had access to water ad libitum and were fed a full daily regimen of food each day (Purina Animal Nutrition, Gray Summit, MO) enriched with fresh fruit and/or vegetables. All studies are conducted in compliance with USDA, NIH and SRI International IACUC guidelines. SRI International is an AAALAC accredited institution. […] Following the acclimation period, animals were dosed subcutaneously with vehicle or compound and EEG activity was recorded for 120 min. […]
Data was analyzed using existing, customized MATLAB scripts with the EEGLAB toolbox. […] Mean absolute power, log transformed absolute power, and relative power was calculated based on each frequency band’s contribution to the total absolute power (i.e., % power). The mean normalized power was subsequently calculated by dividing each frequency band’s absolute power in the drug condition with the corresponding power in the control condition for each individual animal (i.e., use each animal as its own control) and then average across subjects. […]

With `CCOC(=O)N1CCC[C@H](N2CCC(C(=O)NC3(C)CCC3)CC2)CC1` [HTL9936, ethyl (S)-4-(4-((1-methylcyclobutyl)carbamoyl)piperidin-1-yl)azepane-1-carboxylate] the qEEG power was “increased delta power”.
